Source: patent publication US6172185A, “Antimicrobial cationic peptide derivatives of bactenecin” (priority 1998, dated 2001)
Where a SMILES comes first, the peptide text is derived from it.

Legend:
E. coli UB1005 = test: Outer membrane permeabilization, NPN uptake assay; format: cell-based, Escherichia coli; conditions: FIG. 3
Description: Mid-log phase E. coli cells were collected and incubated with NPN in the presence of various concentrations of bactenecin (oxidized), bac2S, bactenecin (reduced). NPN was taken up into cells when the outer membrane was disrupted by the peptides. The uptake of NPN was measured by the increase of fluorescence. Polymyxin B: -.quadrature.-; Bactenecin: -+-; Bac2S: -o-; Bactenecin (Reduced): -.gradient.-
The ability of peptides to permeabilize the outer membrane was determined by the NPN assay of Loh et al. (Loh et al., Antimicrob. Agents Chemother. 19:777, 1984). Cytoplasmic membrane permeabilization was determined by using the membrane potential sensitive cyanine dye DiS-C3-(5) (Sims et al., Biochemistry 13:3315, 1974). […] The cell suspension was incubated with […] DiS-C3-(5) until DiS-C3-(5) uptake was maximal (as indicated by a stable reduction in fluorescence due to fluorescence quenching as the dye became concentrated in the cell by the membrane potential), and 100 mM KCl was added to equilibrate the cytoplasmic and external K+ concentration. […] The fluorescence reading was monitored by using a Perkin-Elmer model 650-10 S fluorescence spectrophotometer (Perkin-Elmer Corp. Norwalk, Conn.), with an excitation wavelength of 622 nm and an emission wavelength of 670 nm. […]

E. coli DC2 = format: cell-based, Escherichia coli; conditions: E. coli DC2, 0.1M KCl
Description: The minimal inhibitory concentration (MIC) of peptides was determined by a modified two-fold microtitre broth dilution method modified from that of Steinberg et al (Steinberg, Antimicrob. Agents Chemother. 41:1738, 1997). Using the classical method (Amsterdam, Antibiotics in Laboratory Medicine (Lorian, V., ed) pp. 72-78, 1991), higher concentrations of peptides tend to precipitate in the LB broth, thus the concentrations of peptides in the sequential wells are not accurate. Also the peptides stick to the most readily available (tissue-culture treated polystyrene) 96-well microtitre plates. Therefore the 2× series of dilutions was performed in Eppendoff tubes (polypropylene) before mixing with LB broth. Serial of two fold dilutions of peptides ranging from 640 μg/ml to 1.25 μg/ml were made in 0.2% BSA, 0.01% acetic acid buffer in the Eppendoff tubes. Ten μl of each concentration was added to each corresponding well of a 96-well microtiter plate (polypropylene cluster; Costar Corporation, Cambridge, Mass.). Bacteria were grown overnight and diluted 10-5 into fresh LB broth or Todd Hewitt broth for Streptococcus. LB medium contained 10 g/1l tryptone and 5 g/yeast extract, with no salt. Todd Hewitt contained 500 g/l beef heart infusion, 20 g/l bacto neopeptone, 2 g/l bacto dextrose, 2 g/l sodium chloride, 0.4 g/l disodium phosphate, 2.5 g/l sodium carbonate. One hundred […] containing about 10^4-10^5 CFU/ml of tested bacteria was added to each well. […]
It has been proposed that the antibacterial target of cationic peptides be at the cytoplasmic membrane. […] Once inside the cells, diS-C3-(5) becomes concentrated and self-quenches its own fluorescence. If peptides form channels or otherwise disrupt the membrane, the membrane potential will be dissipated, and the DiS-C3-(5) will be released into the medium causing the fluorescence to increase, as can be detected by fluorescent spectrometry. […] Therefore the MICs of bactenecin, reduced bactenecin and bac2S in the presence of 0.1M KCl were determined and shown to be 8-16 μg/ml (i.e. 4 to 8 fold higher than in low salt). […]

[1] = tested on: rat embryonic neurons, fetal rat astrocytes and human glioblastoma cells; conditions: cited from earlier work

Compound | concentration permeabilizing the outer membrane to 50% of maximal increase in fluorescence (NPN) (E. coli UB1005) [mg/mL] | Minimal Agglutinating Concentration, Oxidized Form (Human Red Blood Cells) [µg/mL] | MIC in the presence of 0.1M KCl (E. coli DC2) [µg/mL] | cytotoxicity [1]
Polymyxin B | 0.4 | – | – | –
CC[C@H](C)[C@@H]1NC(=O)[C@H](CCCNC(=N)N)NC(=O)[C@@H](NC(=O)[C@H](CC(C)C)NC(=O)[C@@H](N)CCCNC(=N)N)CSSC[C@@H](C(=O)N[C@@H](CCCNC(=N)N)C(=O)O)NC(=O)[C@H](C(C)C)NC(=O)[C@H](CCCNC(=N)N)NC(=O)[C@H]([C@@H](C)CC)NC(=O)[C@H](C(C)C)NC(=O)[C@H](C(C)C)NC1=O [Bactenecin, RLCRIVVIRVCR] (HELM PEPTIDE1{R.L.C.R.I.V.V.I.R.V.C.R}$PEPTIDE1,PEPTIDE1,3:R3-11:R3$$$V2.0) | – | 64 | 8 to 16 | strongly cytotoxic
